Experimental data: US11096985B2, “Antimicrobial peptides, their variants and uses” (priority 2015, dated 2021)
Where a SMILES comes first, the peptide text is derived from it. [ ]: non-standard residue; d: D form.

Legend:
[1] = system: clinical strains of Escherichia coli; assay: MIC, clinical strains of E. coli; assay type: cell-based; design: unit: μg/ml; settings: microdilution, Muller Hinton broth-cation adjusted, 0.02% BSA, 0.2% acetic acid
Outline: (§1)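 By broth microdilution, Chain peptides from 0.125 to 128 μg/ml were tested against clinical strains adjusted to 5.0×10^5 cfu/ml, with bacteria in MH broth and yeasts in Potato dextrose broth. After 20–24 h at 37 °C, the lowest peptide concentration without visible growth was scored as MIC.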

[2] = system: clinical strains of Klebsiella pneumoniae; assay: MIC, clinical strains of K. pneumoniae; assay type: cell-based; design: unit: μg/ml; settings: microdilution, Muller Hinton broth-cation adjusted, 0.02% BSA, 0.2% acetic acid
Outline: as §1

[3] = system: clinical strains of Pseudomonas aeruginosa; assay: MIC, clinical strains of P. aeruginosa; assay type: cell-based; design: unit: μg/ml; settings: microdilution, Muller Hinton broth-cation adjusted, 0.02% BSA, 0.2% acetic acid
Outline: as §1

[4] = system: clinical strains of Serratia marcescens; assay: MIC, clinical strains of Serratia marcescens; assay type: cell-based; design: unit: µg/mL; settings: microdilution, Muller Hinton broth-cation adjusted, 0.02% BSA, 0.2% acetic acid
Outline: as §1

[5] = system: clinical strains of Proteus mirabilis; assay: MIC, clinical strains of Proteus mirabilis; assay type: cell-based; design: unit: µg/mL; settings: microdilution, Muller Hinton broth-cation adjusted, 0.02% BSA, 0.2% acetic acid
Outline: as §1

[6] = system: clinical strains of Enterobacter cloacae; assay: MIC, clinical strains of Enterobacter cloacae; assay type: cell-based; design: unit: μg/ml; settings: microdilution, Muller Hinton broth-cation adjusted, 0.02% BSA, 0.2% acetic acid
Outline: as §1

[7] = system: clinical strains of Staphylococcus aureus; assay: MIC, clinical strains of S. aureus; assay type: cell-based; design: unit: μg/ml; settings: microdilution, Muller Hinton broth-cation adjusted, 0.02% BSA, 0.2% acetic acid
Outline: as §1

[8] = system: clinical strains of Streptococcus pneumoniae; assay: MIC, clinical strains of Streptococcus pneumoniae; assay type: cell-based; design: unit: µg/mL; settings: microdilution, Muller Hinton broth-cation adjusted, 0.02% BSA, 0.2% acetic acid
Outline: as §1

[9] = system: clinical strains of Acinetobacter baumannii; assay: MIC, clinical strains of Acinetobacter baumannii; assay type: cell-based; settings: microdilution, Muller Hinton broth-cation adjusted, 0.02% BSA, 0.2% acetic acid
Method: Minimum inhibition concentrations (MICs) were determined against Escherichia coli (ATCC 25922), Staphylococcus aureus (ATCC 25923), Klebsiella pneumoniae (ATCC 10031) and Pseudomonas aeruginosa (ATCC 27853). Also clinical strains of E. coli, K. pneumoniae, E. cloacae, P. aeruginosa, Serratia marcescens, Proteus mirabilis, S. pneumoniae, Acinetobacter baumannii, A. johnsonii and S. aureus were used for MICs assays. Additionally, clinical strains of yeast including Candida albicans, C. glabrata, C. parapsilosis and C. quillermondiae were used. The susceptibility of these microorganisms to Chain peptides were determined using micro broth dilution assay. Colonies of the respective microorganism from Muller Hinton (MH) agar plates incubated overnight were suspended in MH broth media and final concentration of microorganism was adjusted to 5.0×10^5 cfu/ml. An aliquot of 10 μl of each Chain peptide, or gentamicin, tetracycline as reference antibiotics were added in differing concentrations along with 90 μl of bacterial suspension to 96 well polypropylene plates and incubated at 37° C. for 20 to 24 hours. Concentrations of Chain peptides and reference antibiotics ranged from 0.125 to 128 μg/ml and the MICs were recorded as the lowest concentration with no visual growth of bacteria. Similarly, antifungal MICs were tested in Potato dextrose broth.
Clinical strains of yeasts including Candida albicans, C. glabrata, C. parapsilosis and C. quillermondiae were also tested with the 12 Chain peptides. The minimum inhibitory concentration (MICs) varied between these peptides and are presented in Tables 4a, 4b, 4c and 5a, 5b, 5c. Peptides Chain 105, 201 and 308 are broad spectrum antimicrobials with MICs between 0.5-32 μg/ml against all the bacteria and yeasts tested, except Serratia marcescens and Proteus mirabilis, against which the MICs were between 64-128 μg/ml. Peptide Chain 306 has narrow spectrum activity against E.coli at 1 μg/ml and for the rest of the bacterial strains at >32 μg/ml (FIG. 10).

[10] = system: clinical strains of Candida albicans; assay: MIC, clinical yeast strains, Candida albicans; assay type: cell-based; design: unit: μg/ml
Outline: as §1

[11] = system: clinical strains of C. glabrata; assay: MIC, clinical yeast strains, C. glabrata; assay type: cell-based, Candida glabrata; design: unit: μg/ml
Outline: as §1

[12] = system: clinical strains of C. parapsilosis; assay: MIC, clinical yeast strains, C. parapsilosis; assay type: cell-based, Candida parapsilosis; design: unit: μg/ml
Outline: as §1

[13] = system: clinical strains of C. quillermondiae; assay: MIC, clinical yeast strains, C. quillermondiae; assay type: cell-based; settings: C. quillermondiae clinical yeast strain 1
Outline: as §1

## CC[C@@H](C)[C@@H](NC(=O)[C@@H](Cc1c[nH]c2ccccc12)NC(=O)[C@H](N)CCCCN)C(=O)N[C@@H](C(=O)N[C@H](Cc1c[nH]c2ccccc12)C(=O)N[C@H](CCCNC(=N)N)C(=O)N[C@H](Cc1c[nH]c2ccccc12)C(=O)N[C@H](CCCNC(=N)N)C(=O)N[C@H](Cc1ccccc1)C(=O)N[C@H](CCCCN)C(=O)N[C@H](CCCNC(=N)N)C(=O)O)C(C)C [Chain201D] (H-[dK][dW][dI][dV][dW][dR][dW][dR][dF][dK][dR]-OH)
[1]; Escherichia coli clinical strain 1
  Minimum inhibitory concentration: 16
[1]; Escherichia coli clinical strain 2
  Minimum inhibitory concentration: 1
[1]; Escherichia coli clinical strain 3
  Minimum inhibitory concentration: 1
[1]; Escherichia coli clinical strain 4
  Minimum inhibitory concentration: 1
[1]; Escherichia coli clinical strain 5
  Minimum inhibitory concentration: 1
[2]; Klebsiella pneumoniae clinical strain 1
  Minimum inhibitory concentration: 2
[2]; Klebsiella pneumoniae clinical strain 2
  Minimum inhibitory concentration: 2
[2]; Klebsiella pneumoniae clinical strain 3
  Minimum inhibitory concentration: 4
[2]; Klebsiella pneumoniae clinical strain 4
  Minimum inhibitory concentration: 4
[2]; Klebsiella pneumoniae clinical strain 5
  Minimum inhibitory concentration: 2
[3]; Pseudomonas aeruginosa clinical strain 1
  Minimum inhibitory concentration: 4
[3]; Pseudomonas aeruginosa clinical strain 2
  Minimum inhibitory concentration: 4
[3]; Pseudomonas aeruginosa clinical strain 3
  Minimum inhibitory concentration: 4
[3]; Pseudomonas aeruginosa clinical strain 4
  Minimum inhibitory concentration: 2
[3]; Pseudomonas aeruginosa clinical strain 5
  Minimum inhibitory concentration: 2
[4]; Serratia marcescens clinical strain 1
  Minimum inhibitory concentration: 64
[4]; Serratia marcescens clinical strain 2
  Minimum inhibitory concentration: 64
[4]; Serratia marcescens clinical strain 3
  Minimum inhibitory concentration: 64
[4]; Serratia marcescens clinical strain 4
  Minimum inhibitory concentration: 64
[4]; Serratia marcescens clinical strain 5
  Minimum inhibitory concentration: 128
[5]; Proteus mirabilis clinical strain 1
  Minimum inhibitory concentration: >128
[5]; Proteus mirabilis clinical strain 2
  Minimum inhibitory concentration: 32
[5]; Proteus mirabilis clinical strain 3
  Minimum inhibitory concentration: 64
[5]; Proteus mirabilis clinical strain 4
  Minimum inhibitory concentration: >128
[5]; Proteus mirabilis clinical strain 5
  Minimum inhibitory concentration: >128
[6]; Enterobacter cloacae clinical strain 1
  Minimum inhibitory concentration: 1
[6]; Enterobacter cloacae clinical strain 2
  Minimum inhibitory concentration: 2
[6]; Enterobacter cloacae clinical strain 3
  Minimum inhibitory concentration: 2
[6]; Enterobacter cloacae clinical strain 4
  Minimum inhibitory concentration: 2
[6]; Enterobacter cloacae clinical strain 5
  Minimum inhibitory concentration: 1
[7]; Staphylococcus aureus clinical strain 1
  Minimum inhibitory concentration: 1
[7]; Staphylococcus aureus clinical strain 2
  Minimum inhibitory concentration: 1
[7]; Staphylococcus aureus clinical strain 3
  Minimum inhibitory concentration: 1
[7]; Staphylococcus aureus clinical strain 4
  Minimum inhibitory concentration: 1
[7]; Staphylococcus aureus clinical strain 5
  Minimum inhibitory concentration: 1
[8]; Streptococcus pneumoniae clinical strain 1
  Minimum inhibitory concentration: 8
[8]; Streptococcus pneumoniae clinical strain 2
  Minimum inhibitory concentration: 4
[8]; Streptococcus pneumoniae clinical strain 3
  Minimum inhibitory concentration: 2
[8]; Streptococcus pneumoniae clinical strain 4
  Minimum inhibitory concentration: 4
[8]; Streptococcus pneumoniae clinical strain 5
  Minimum inhibitory concentration: 4
[9]; Acinetobacter baumannii clinical strain 1
  Minimum inhibitory concentration: 4
[9]; Acinetobacter baumannii clinical strain 2
  Minimum inhibitory concentration: 4
[9]; Acinetobacter baumannii clinical strain 3
  Minimum inhibitory concentration: 4
[9]; Acinetobacter baumannii clinical strain 4
  Minimum inhibitory concentration: 4
[9]; Acinetobacter baumannii clinical strain 5
  Minimum inhibitory concentration: 4
[10]; Candida albicans clinical yeast strain 1
  Minimum inhibitory concentration: 16
[10]; Candida albicans clinical yeast strain 2
  Minimum inhibitory concentration: 8
[10]; Candida albicans clinical yeast strain 3
  Minimum inhibitory concentration: 8
[10]; Candida albicans clinical yeast strain 4
  Minimum inhibitory concentration: 16
[10]; Candida albicans clinical yeast strain 5
  Minimum inhibitory concentration: 8
[11]; C. glabrata clinical yeast strain 1
  Minimum inhibitory concentration: 8
[11]; C. glabrata clinical yeast strain 2
  Minimum inhibitory concentration: 8
[11]; C. glabrata clinical yeast strain 3
  Minimum inhibitory concentration: 8
[11]; C. glabrata clinical yeast strain 4
  Minimum inhibitory concentration: 64
[12]; C. parapsilosis clinical yeast strain 1
  Minimum inhibitory concentration: 8
[12]; C. parapsilosis clinical yeast strain 2
  Minimum inhibitory concentration: 8
[12]; C. parapsilosis clinical yeast strain 3
  Minimum inhibitory concentration: 8
[12]; C. parapsilosis clinical yeast strain 4
  Minimum inhibitory concentration: 8
[13]
  Minimum inhibitory concentration: 8
